Measured values from patent US8394774B2, “Pesticidal compositions” (Dow AgroSciences, LLC., priority 2009, dated 2013).
Like-named read-outs stand apart in the source and are kept apart here.

Legend:
[1] = test system: beet armyworm (BAW; Spodoptera exigua: Lepidoptera); assay: 128-well diet tray assay on beet armyworm (BAW 50); format: in vivo; settings: 144 h, read-out: BAW 50
Experimental: (§1) Bioassays on beet armyworm (BAW; Spodoptera exigua: Lepidoptera) were conducted using either a 96-well microtiter plate-based high throughput (HTS) bioassay or a 128-well diet tray assay. The HTS assay is based on a modification of Lewer et al. J. Nat. Prod. 2006, 69, 1506. BAW eggs were placed on top of artificial diet (100 μL) in each well of a 96-well microtiter plate. The diet was pretreated with test compounds (12 μg dissolved in 30 μL of DMSO-acetone-H2O mixture) layered on top of the diet using a liquid handling system and then allowed to dry for several hours. Infested plates were then covered with a layer of sterile cotton batting and the plate lid, and then held in the dark at 29° C. Mortality was recorded at 6 days post-treatment. Each plate had six replicates. The percent mortality was calculated from the average of the six replicates. In the case of the 128-well diet assay, three to five second instar BAW larvae were placed in each well (3 mL) of the diet tray that had been previously filled with 1 mL of artificial diet to which 50 ug/cm^2 of the test compound (dissolved in 50 μL of 90:10 acetone-water mixture) had been applied (to each of eight wells) and then allowed to dry. Trays were covered with a clear self-adhesive cover, and held at 25° C., 14:10 light-dark for six days. Percent mortality was recorded for the larvae in each well; activity in the eight wells was then averaged. In Table 4, under both the BAW HTS and BAW 50 headings, an “A” means that the compound was tested and at least 50 percent mortality was observed whereas, “B” means that either (1) the compound was tested and less than 50 percent mortality was observed or (2) the compound was not tested.

[2] = test system: beet armyworm (BAW; Spodoptera exigua: Lepidoptera); assay: 96-well microtiter plate-based high throughput (HTS) bioassay on beet armyworm (BAW HTS); format: in vivo; settings: 144 h, read-out: BAW HTS
Experimental: as §1

[3] = percent mortality, 128-well diet assay, 50 ug/cm^2 of test compound on diet, second instar BAW larvae, six days, 25° C., average of eight wells
[4] = percent mortality, 96-well HTS, 12 μg test compound on diet, BAW eggs, 6 days post-treatment, 29° C., average of six replicates

CO[C@@H]1[C@@H](OC)[C@H](C)O[C@@H](O/N=C/c2ccc(/C=C/c3cccc(C(F)(F)F)c3)cc2)[C@@H]1OC [Compound 9, 4-[(E)-2-(3-Trifluoromethylphenyl)-vinyl]-benzaldehyde O-((2S,3R,4R,5S,6S)-3,4,5-trimethoxy-6-methyl-tetrahydropyran-2-yl)-oxime]
pest or weed control at 50 µg/cm2, 50 µg/cm2 [1, 3]: > 50%
pest or weed control at 12 µg/well, 12 µg/well [2, 4]: < 50%

CCO[C@@H]1[C@@H](OC)[C@H](C)O[C@@H](O/N=C/c2ccc(C#Cc3ccc(C(F)(F)F)cc3)cc2)[C@@H]1OC [Compound 14, 4-(4-Trifluoromethylphenylethynyl)-benzaldehyde O-((2S,3R,4R,5S,6S)-4-ethoxy-3,5-dimethoxy-6-methyl-tetrahydropyran-2-yl)-oxime]
pest or weed control at 50 µg/cm2, 50 µg/cm2 [1, 3]: > 50%
pest or weed control at 12 µg/well, 12 µg/well [2, 4]: > 50%

CCO[C@@H]1[C@@H](OC)[C@H](C)O[C@@H](O/N=C/c2ccc(/C=C/c3ccc(C(O)(C(F)(F)F)C(F)(F)F)cc3)cc2)[C@@H]1OC [Compound 11, 4-{(E)-2-[4-(2,2,2-Trifluoro-1-hydroxy-1-trifluoromethyl-ethyl)-phenyl]-vinyl}-benzaldehyde O-((2S,3R,4R,5S,6S)-4-ethoxy-3,5-dimethoxy-6-methyl-tetrahydropyran-2-yl)-oxime]
pest or weed control at 50 µg/cm2, 50 µg/cm2 [1, 3]: < 50%
pest or weed control at 12 µg/well, 12 µg/well [2, 4]: > 50%

CCCO[C@@H]1[C@@H](OC)[C@H](C)O[C@@H](OC(=O)Nc2ccc(/C=C/c3ccc(OC(F)(F)C(F)(F)F)cc3)cc2)[C@@H]1OC [Compound 18, {4-[(E)-2-(4-Pentafluoroethyloxyphenyl)-vinyl]-phenyl}-carbamic acid (2S,3R,4R,5S,6S)-4-propoxy-3,5-dimethoxy-6-methyl-tetrahydropyran-2-yl ester]
pest or weed control at 50 µg/cm2, 50 µg/cm2 [1]: > 50%
pest or weed control at 12 µg/well, 12 µg/well [2]: < 50%

CCO[C@@H]1[C@@H](OC)[C@H](C)O[C@@H](OC(=O)Nc2ccc(/C=C/c3ccc(C(F)(F)F)cc3)cc2)[C@@H]1OC [Compound 16, {4-[(E)-2-(4-trifluoromethylphenyl)-vinyl]-phenyl}-carbamic acid (2S,3R,4R,5S,6S)-4-ethoxy-3,5-dimethoxy-6-methyl-tetrahydropyran-2-yl ester]
pest or weed control at 50 µg/cm2, 50 µg/cm2 [1]: > 50%
pest or weed control at 12 µg/well, 12 µg/well [2]: > 50%

CCO[C@@H]1[C@@H](OC)[C@H](C)O[C@@H](O/N=C/c2ccc(/C=C/c3ccc(C(F)(F)C(F)(F)OC(F)(F)C(F)(F)C(F)(F)F)cc3)cc2)[C@@H]1OC [Compound 3]
pest or weed control at 50 µg/cm2, 50 µg/cm2 [1, 3]: < 50%
pest or weed control at 12 µg/well, 12 µg/well [2, 4]: < 50%

CCCO[C@@H]1[C@@H](OC)[C@H](C)O[C@@H](O/N=C/c2ccc(/C=C/c3ccc(C(F)(F)F)cc3)cc2)[C@@H]1OC [Compound 10, 4-[(E)-2-(4-Trifluoromethylphenyl)-vinyl]-benzaldehyde O-((2S,3R,4R,5S,6S)-4-propoxy-3,5-dimethoxy-6-methyl-tetrahydropyran-2-yl)-oxime]
pest or weed control at 50 µg/cm2, 50 µg/cm2 [1, 3]: > 50%
pest or weed control at 12 µg/well, 12 µg/well [2, 4]: > 50%

CCO[C@@H]1[C@@H](OC)[C@H](C)O[C@@H](O/N=C/c2ccc(/C=C/c3ccc(C(F)(F)F)cc3)cc2)[C@@H]1OC [Compound 2, 4-[(E)-2-(4-Trifluoromethylphenyl)-vinyl]-benzaldehyde O-((2S,3R,4R,5S,6S)-4-ethoxy-3,5-dimethoxy-6-methyl-tetrahydropyran-2-yl)-oxime]
pest or weed control at 50 µg/cm2, 50 µg/cm2 [1, 3]: > 50%
pest or weed control at 12 µg/well, 12 µg/well [2, 4]: > 50%

CCO[C@@H]1[C@@H](OC)[C@H](C)O[C@@H](O/N=C/c2ccc(/C=C/c3ccc(C(C)=O)cc3)cc2)[C@@H]1OC [Compound 4, 4-[(E)-2-(4-Acetyl-phenyl)-vinyl]-benzaldehyde O-((2S,3R,4R,5S,6S)-4-ethoxy-3,5-dimethoxy-6-methyl-tetrahydropyran-2-yl)-oxime]
pest or weed control at 50 µg/cm2, 50 µg/cm2 [1, 3]: < 50%
pest or weed control at 12 µg/well, 12 µg/well [2, 4]: < 50%

CO[C@@H]1[C@@H](OC)[C@H](C)O[C@@H](O/N=C/c2ccc(C#Cc3ccc(C(F)(F)F)cc3)cc2)[C@@H]1OC [Compound 15, 4-(4-Trifluoromethylphenylethynyl)-benzaldehyde O-((3R,4R,5S,6S)-3,4,5-trimethoxy-6-methyl-tetrahydropyran-2-yl)-oxime]
pest or weed control at 50 µg/cm2, 50 µg/cm2 [1, 3]: > 50%
pest or weed control at 12 µg/well, 12 µg/well [2, 4]: > 50%

CCO[C@@H]1[C@@H](OC)[C@H](C)O[C@@H](OC(=O)Nc2ccc(/N=N/c3ccc(C(F)(F)F)cc3)cc2)[C@@H]1OC [Compound 21, [4-(4-Trifluoromethylphenylazo)-phenyl]-carbamic acid (2S,3R,4R,5S,6S)-4-ethoxy-3,5-dimethoxy-6-methyl-tetrahydropyran-2-yl ester]
pest or weed control at 50 µg/cm2, 50 µg/cm2 [1]: < 50%
pest or weed control at 12 µg/well, 12 µg/well [2]: > 50%

CCO[C@@H]1[C@@H](OC)[C@H](C)O[C@@H](OC(=O)Nc2ccc(/N=N/c3ccc(OC(F)(F)C(F)(F)F)cc3)cc2)[C@@H]1OC [Compound 22, [4-(4-Pentafluoroethyloxyphenylazo)-phenyl]-carbamic acid (2S,3R,4R,5S,6S)-4-ethoxy-3,5-dimethoxy-6-methyl-tetrahydropyran-2-yl ester]
pest or weed control at 50 µg/cm2, 50 µg/cm2 [1]: > 50%
pest or weed control at 12 µg/well, 12 µg/well [2]: > 50%

CCOc1ccc(/C=C/c2ccc(NC(=O)O[C@@H]3O[C@@H](C)[C@H](OC)[C@@H](OC)[C@H]3OC)cc2)cc1 [Compound 17, {4-[(E)-2-(4-Ethoxyphenyl)-vinyl]-phenyl}-carbamic acid (2S,3R,4R,5S,6S)-3,4,5-tri-methoxy-6-methyl-tetrahydropyran-2-yl ester]
pest or weed control at 50 µg/cm2, 50 µg/cm2 [1]: > 50%
pest or weed control at 12 µg/well, 12 µg/well [2]: < 50%

CCCO[C@@H]1[C@@H](OC)[C@H](C)O[C@@H](O/N=C/c2ccc(/C=C/c3ccc(OC(F)(F)F)cc3)cc2)[C@@H]1OC [Compound 1, 4-[(E)-2-(4-trifluoromethoxyphenyl)-vinyl]-benzaldehyde O-((2S,3R,4R,5S,6S)-3,5-dimethoxy-6-methyl-4-propoxy-tetrahydropyran-2-yl)-oxime]
pest or weed control at 50 µg/cm2, 50 µg/cm2 [1, 3]: > 50%
pest or weed control at 12 µg/well, 12 µg/well [2, 4]: > 50%

CO[C@@H]1[C@@H](OC)[C@H](C)O[C@@H](O/N=C/c2ccc(/C=C/c3ccc(C(F)(F)F)cc3)cc2)[C@@H]1OC [Compound 12, 4-[(E)-2-(4-Trifluoromethylphenyl)-vinyl]-benzaldehyde O-((2S,3R,4R,5S,6S)-3,4,5-trimethoxy-6-methyl-tetrahydropyran-2-yl)-oxime]
pest or weed control at 50 µg/cm2, 50 µg/cm2 [1, 3]: > 50%
pest or weed control at 12 µg/well, 12 µg/well [2, 4]: > 50%

CCO[C@@H]1[C@@H](OC)[C@H](C)O[C@@H](O/N=C/c2ccc(/C=C/c3cccc(C(F)(F)F)c3)cc2)[C@@H]1OC [Compound 6, 4-[(E)-2-(3-Trifluoromethylphenyl)-vinyl]-benzaldehyde O-((2S,3R,4R,5S,6S)-4-ethoxy-3,5-dimethoxy-6-methyl-tetrahydropyran-2-yl)-oxime]
pest or weed control at 50 µg/cm2, 50 µg/cm2 [1, 3]: > 50%
pest or weed control at 12 µg/well, 12 µg/well [2, 4]: > 50%

CCO[C@@H]1[C@@H](OC)[C@H](C)O[C@@H](OC(=O)Nc2ccc(/N=N/c3ccc(OC(F)(F)F)cc3)cc2)[C@@H]1OC [Compound 20, [4-(4-Trifluoromethoxy-phenylazo)-phenyl]-carbamic acid (2S,3R,4R,5S,6S)-4-ethoxy-3,5-dimethoxy-6-methyl-tetrahydropyran-2-yl ester]
pest or weed control at 50 µg/cm2, 50 µg/cm2 [1]: > 50%
pest or weed control at 12 µg/well, 12 µg/well [2]: > 50%

CCO[C@@H]1[C@@H](OC)[C@H](C)O[C@@H](OC(=O)Nc2ccc(/N=N/c3cccc(OC(F)(F)F)c3)cc2)[C@@H]1OC [Compound 19, [4-(3-trifluoromethoxyphenylazo)-phenyl]-carbamic acid (2S,3R,4R,5S,6S)-3,5-dimethoxy-4-ethoxy-6-methyl-tetrahydropyran-2-yl ester]
pest or weed control at 50 µg/cm2, 50 µg/cm2 [1]: > 50%
pest or weed control at 12 µg/well, 12 µg/well [2]: > 50%

CCO[C@@H]1[C@@H](OC)[C@H](C)O[C@@H](O/N=C/c2ccc(/C=C/c3ccc(OC(F)(F)F)cc3)cc2)[C@@H]1OC [Compound 5, 4-[(E)-2-(4-Trifluoromethoxyphenyl)-vinyl]-benzaldehyde O-((2S,3R,4R,5S,6S)-4-ethoxy-3,5-dimethoxy-6-methyl-tetrahydropyran-2-yl)-oxime]
pest or weed control at 50 µg/cm2, 50 µg/cm2 [1, 3]: > 50%
pest or weed control at 12 µg/well, 12 µg/well [2, 4]: < 50%

CO[C@@H]1[C@@H](OC)[C@H](C)O[C@@H](O/N=C/c2ccc(/C=C/c3ccc(OC(F)(F)F)cc3)cc2)[C@@H]1OC [Compound 8]
pest or weed control at 50 µg/cm2, 50 µg/cm2 [1, 3]: > 50%
pest or weed control at 12 µg/well, 12 µg/well [2, 4]: > 50%

CCO[C@@H]1[C@@H](OC)[C@H](C)O[C@@H](O/N=C/c2ccc(/C=C/c3ccc(OC(F)(F)C(F)(F)F)cc3)cc2)[C@@H]1OC [Compound 7, 4-[(E)-2-(4-Pentafluoroethyloxyphenyl)-vinyl]-benzaldehyde O-((2S,3R,4R,5S,6S)-4-ethoxy-3,5-dimethoxy-6-methyl-tetrahydropyran-2-yl)-oxime]
pest or weed control at 50 µg/cm2, 50 µg/cm2 [1, 3]: > 50%
pest or weed control at 12 µg/well, 12 µg/well [2, 4]: < 50%
